Legend:
Human neurokinin (NK1) = biological target: T1, Human neurokinin (NK1) (Homo sapiens, UniProt P25103); experiment: Radioligand binding, human neurokinin NK1 membranes, filtration, [125I]-Substance P; details: compound at 10 μM; [125I]-Substance P
T1 construct: purchased Perkin Elmer Biosignal
How it was run: (§1)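 Percent inhibition of radioligand binding measured on recombinant human membranes: NK1 with [125I]-Substance P, KOP with [3H]-Diprenorphine. Incubation 1 h at room temperature, then harvest onto 0.3% PEI-soaked filters, cold Tris-HCl pH 7.4 washes and scintillation counting; non-specific binding from reference ligand wells.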

Human δ-opioid (DOP) = biological target: T2, Human δ-opioid (DOP) (Homo sapiens, UniProt P41143); experiment: Radioligand binding, human δ-opioid (DOP) membranes, FlashPlate, [3H]-Bremazocine; details: compound at 10 μM; [3H]-Bremazocine
T2 construct: purchased Perkin Elmer Biosignal
How it was run: (§2)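 Cloned human receptor membranes were coated onto FlashPlate wells and incubated with radioligand and compound (added from a 0.5 mM DMSO daughter plate) for 1 hour at room temperature in the dark. Scintillation counting gave percent inhibition, with DMSO defining total and reference ligand defining non-specific binding.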

Human Melanocortin (MC3) = biological target: T3, Human Melanocortin (MC3) (Homo sapiens, UniProt P41968); experiment: Radioligand binding, human melanocortin MC3 membranes, FlashPlate, [125I]-NDP-αMSH; details: compound at 10 μM; [125I]-NDP-αMSH
T3 construct: purchased Perkin Elmer Biosignal
How it was run: as §2

[1] = biological target: T4, Human neuropeptide Y (NPY-Y1) (Homo sapiens, UniProt P25929); experiment: Radioligand binding, human neuropeptide Y NPY-Y1 membranes, FlashPlate, [125I]-PYY; details: compound at 10 μM; [125I]-PYY
T4 construct: purchased Perkin Elmer Biosignal
T4 sequence (P25929 1-384): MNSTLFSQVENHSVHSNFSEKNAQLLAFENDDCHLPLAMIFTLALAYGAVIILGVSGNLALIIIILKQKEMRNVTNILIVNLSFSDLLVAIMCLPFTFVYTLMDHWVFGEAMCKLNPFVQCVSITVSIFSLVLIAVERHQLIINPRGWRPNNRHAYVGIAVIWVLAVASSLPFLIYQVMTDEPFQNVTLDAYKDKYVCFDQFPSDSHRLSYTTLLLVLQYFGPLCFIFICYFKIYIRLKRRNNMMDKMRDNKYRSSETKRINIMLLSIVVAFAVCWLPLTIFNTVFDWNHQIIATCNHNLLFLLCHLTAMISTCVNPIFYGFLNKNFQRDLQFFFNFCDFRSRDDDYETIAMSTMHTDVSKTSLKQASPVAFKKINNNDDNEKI
How it was run: as §2

Human μ-opioid (MOP) = biological target: T5, Human μ-opioid (MOP) (Homo sapiens, UniProt P35372); experiment: Radioligand binding, human μ-opioid (MOP) membranes, FlashPlate, [3H]-Naloxone; details: compound at 10 μM; [3H]-Naloxone
T5 construct: purchased Perkin Elmer Biosignal
How it was run: as §2

Mouse urotensin (mUR2) = biological target: T6, Mouse urotensin (mUR2) (Mus musculus, UniProt Q8VIH9); experiment: Radioligand binding, mouse urotensin mUR2 membranes, FlashPlate, [125I]-Urotensin II; details: compound at 10 μM; [125I]-Urotensin II
T6 construct: purchased Perkin Elmer Biosignal
T6 sequence (Q8VIH9 1-385): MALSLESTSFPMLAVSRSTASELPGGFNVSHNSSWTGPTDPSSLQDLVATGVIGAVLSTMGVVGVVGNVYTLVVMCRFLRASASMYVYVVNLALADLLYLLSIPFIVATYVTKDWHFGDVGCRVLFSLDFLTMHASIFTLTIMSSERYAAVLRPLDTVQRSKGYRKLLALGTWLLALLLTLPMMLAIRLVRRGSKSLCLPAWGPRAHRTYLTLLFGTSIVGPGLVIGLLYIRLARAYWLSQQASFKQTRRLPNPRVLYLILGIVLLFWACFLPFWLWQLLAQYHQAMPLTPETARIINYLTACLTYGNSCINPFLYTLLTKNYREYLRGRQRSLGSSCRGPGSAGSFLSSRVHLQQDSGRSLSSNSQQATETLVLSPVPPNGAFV
How it was run: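 Cloned mouse urotensin (mUR2) receptor membranes from Perkin Elmer Biosignal were immobilized in FlashPlate microplates using a proprietary coating. Each well got 19.5 μl buffer, then 0.5 μl of DMSO, reference ligand, or compound. Adding 5 μl of [125I]-Urotensin II, diluted to 5× final concentration in binding buffer, started binding. Plates were sealed with TopSeal-A and incubated 1 hour at room temperature in the dark. Wells were counted for 30 seconds each on a TopCount after a 60-second delay, and percentage inhibition was calculated.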

Human κ-Opioid (KOP) = biological target: T7, Human κ-Opioid (KOP) (Homo sapiens, UniProt P41145); experiment: Radioligand binding, human κ-opioid (KOP) membranes, filtration, [3H]-Diprenorphine; details: compound at 10 μM; [3H]-Diprenorphine
T7 construct: purchased Perkin Elmer Biosignal
How it was run: as §1

Human Melanocortin (MC4) = biological target: T8, Human Melanocortin (MC4) (Homo sapiens, UniProt P32245); experiment: Radioligand binding, human melanocortin MC4 membranes, FlashPlate, [125I]-NDP-αMSH; details: compound at 10 μM; [125I]-NDP-αMSH
T8 construct: purchased Perkin Elmer Biosignal
How it was run: as §2

Human melanocortin (MC5) = biological target: T9, Human melanocortin (MC5) (Homo sapiens, UniProt P33032); experiment: Radioligand binding, human melanocortin MC5 membranes, FlashPlate, [125I]-NDP-αMSH; details: compound at 10 μM; [125I]-NDP-αMSH
T9 construct: purchased Perkin Elmer Biosignal
How it was run: as §2

Human opioid (ORL1) = biological target: T10, Human opioid (ORL1) (Homo sapiens, UniProt P41146); experiment: Radioligand binding, human opioid ORL1 membranes, FlashPlate, [125I]-Nociceptin; details: compound at 10 μM; [125I]-Nociceptin
T10 construct: purchased Perkin Elmer Biosignal
How it was run: as §2

[2] = biological target: T11, Human melanin-concentrating hormone (MCH1) (Homo sapiens, UniProt Q99705); experiment: Radioligand binding, human melanin-concentrating hormone MCH1 membranes, FlashPlate, [125I]-S36057; details: compound at 10 μM; [125I]-S36057
T11 construct: purchased Perkin Elmer Biosignal
How it was run: as §2

T2 sequence (P41143 whole entry): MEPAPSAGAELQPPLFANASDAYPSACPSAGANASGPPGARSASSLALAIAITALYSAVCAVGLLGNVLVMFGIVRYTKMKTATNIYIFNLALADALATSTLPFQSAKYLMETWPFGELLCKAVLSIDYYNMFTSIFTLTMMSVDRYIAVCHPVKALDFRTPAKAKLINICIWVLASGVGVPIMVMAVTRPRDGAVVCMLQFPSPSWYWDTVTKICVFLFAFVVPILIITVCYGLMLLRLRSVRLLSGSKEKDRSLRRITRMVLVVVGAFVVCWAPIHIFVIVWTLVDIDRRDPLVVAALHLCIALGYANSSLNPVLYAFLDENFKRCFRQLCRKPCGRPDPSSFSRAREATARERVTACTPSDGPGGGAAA
T8 sequence (P32245 whole entry): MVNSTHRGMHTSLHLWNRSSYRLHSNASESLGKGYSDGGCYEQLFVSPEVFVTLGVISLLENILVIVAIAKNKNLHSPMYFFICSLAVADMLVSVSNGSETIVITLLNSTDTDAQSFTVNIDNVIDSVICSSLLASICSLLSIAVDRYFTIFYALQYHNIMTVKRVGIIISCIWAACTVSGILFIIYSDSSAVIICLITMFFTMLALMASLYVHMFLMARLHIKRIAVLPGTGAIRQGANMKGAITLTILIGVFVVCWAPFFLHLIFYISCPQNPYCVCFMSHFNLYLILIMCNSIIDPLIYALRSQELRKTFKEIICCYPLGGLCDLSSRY
T11 sequence (Q99705 whole entry): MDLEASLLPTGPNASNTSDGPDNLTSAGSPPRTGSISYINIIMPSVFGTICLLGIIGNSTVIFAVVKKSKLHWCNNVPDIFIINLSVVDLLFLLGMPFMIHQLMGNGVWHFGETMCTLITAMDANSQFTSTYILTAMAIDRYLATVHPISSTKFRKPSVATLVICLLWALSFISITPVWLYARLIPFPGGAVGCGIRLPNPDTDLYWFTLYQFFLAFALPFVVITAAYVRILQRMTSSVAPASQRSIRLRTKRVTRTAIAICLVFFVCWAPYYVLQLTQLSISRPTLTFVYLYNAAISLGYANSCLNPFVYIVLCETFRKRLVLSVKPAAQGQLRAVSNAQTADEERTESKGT
T3 sequence (P41968 whole entry): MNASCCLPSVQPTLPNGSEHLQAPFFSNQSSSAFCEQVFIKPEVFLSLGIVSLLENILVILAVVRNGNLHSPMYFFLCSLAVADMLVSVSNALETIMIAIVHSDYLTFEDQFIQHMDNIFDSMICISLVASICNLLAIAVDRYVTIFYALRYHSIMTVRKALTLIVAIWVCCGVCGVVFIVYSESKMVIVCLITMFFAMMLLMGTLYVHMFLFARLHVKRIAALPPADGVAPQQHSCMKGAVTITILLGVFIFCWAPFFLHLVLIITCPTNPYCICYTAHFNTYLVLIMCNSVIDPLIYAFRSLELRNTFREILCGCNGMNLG
T10 sequence (P41146 whole entry): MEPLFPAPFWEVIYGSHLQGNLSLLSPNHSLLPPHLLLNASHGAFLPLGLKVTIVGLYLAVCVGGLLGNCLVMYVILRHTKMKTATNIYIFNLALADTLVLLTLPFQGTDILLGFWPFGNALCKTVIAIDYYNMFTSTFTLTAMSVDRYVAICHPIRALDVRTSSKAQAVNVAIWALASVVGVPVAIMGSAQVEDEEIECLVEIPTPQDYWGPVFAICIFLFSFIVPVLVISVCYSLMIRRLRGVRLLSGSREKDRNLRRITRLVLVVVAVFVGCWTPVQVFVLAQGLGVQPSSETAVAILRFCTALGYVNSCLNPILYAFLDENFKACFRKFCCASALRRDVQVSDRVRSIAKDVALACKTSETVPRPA
T9 sequence (P33032 whole entry): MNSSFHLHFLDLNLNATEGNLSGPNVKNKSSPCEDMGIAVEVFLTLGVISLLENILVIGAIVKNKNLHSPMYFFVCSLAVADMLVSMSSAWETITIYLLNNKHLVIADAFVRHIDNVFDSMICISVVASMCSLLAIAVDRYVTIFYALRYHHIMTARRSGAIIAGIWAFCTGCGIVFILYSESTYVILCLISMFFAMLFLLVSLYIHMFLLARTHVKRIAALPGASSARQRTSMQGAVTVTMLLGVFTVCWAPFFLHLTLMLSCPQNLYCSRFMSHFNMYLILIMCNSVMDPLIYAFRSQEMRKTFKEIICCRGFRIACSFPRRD
T1 sequence (P25103 whole entry): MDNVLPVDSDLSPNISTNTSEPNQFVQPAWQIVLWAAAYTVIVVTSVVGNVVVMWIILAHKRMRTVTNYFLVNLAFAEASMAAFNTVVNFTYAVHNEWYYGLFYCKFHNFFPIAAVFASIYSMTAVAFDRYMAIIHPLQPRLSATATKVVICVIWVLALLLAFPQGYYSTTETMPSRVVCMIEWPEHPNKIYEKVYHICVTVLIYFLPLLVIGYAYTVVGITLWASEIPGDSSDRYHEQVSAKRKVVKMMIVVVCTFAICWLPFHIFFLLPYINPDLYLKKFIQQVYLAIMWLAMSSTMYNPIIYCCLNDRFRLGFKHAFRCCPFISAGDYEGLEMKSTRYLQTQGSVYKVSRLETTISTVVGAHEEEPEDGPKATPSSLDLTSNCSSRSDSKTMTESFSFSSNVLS
T7 sequence (P41145 whole entry): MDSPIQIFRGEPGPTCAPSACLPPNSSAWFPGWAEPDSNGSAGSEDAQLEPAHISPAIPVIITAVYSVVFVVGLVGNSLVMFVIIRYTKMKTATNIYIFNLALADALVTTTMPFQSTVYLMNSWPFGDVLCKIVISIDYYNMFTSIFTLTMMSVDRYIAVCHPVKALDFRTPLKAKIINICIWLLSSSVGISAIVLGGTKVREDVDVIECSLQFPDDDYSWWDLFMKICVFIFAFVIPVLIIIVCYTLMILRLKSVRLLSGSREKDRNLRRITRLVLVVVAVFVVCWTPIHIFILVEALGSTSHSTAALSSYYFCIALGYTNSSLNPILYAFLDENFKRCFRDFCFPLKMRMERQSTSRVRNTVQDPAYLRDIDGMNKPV
T5 sequence (P35372 whole entry): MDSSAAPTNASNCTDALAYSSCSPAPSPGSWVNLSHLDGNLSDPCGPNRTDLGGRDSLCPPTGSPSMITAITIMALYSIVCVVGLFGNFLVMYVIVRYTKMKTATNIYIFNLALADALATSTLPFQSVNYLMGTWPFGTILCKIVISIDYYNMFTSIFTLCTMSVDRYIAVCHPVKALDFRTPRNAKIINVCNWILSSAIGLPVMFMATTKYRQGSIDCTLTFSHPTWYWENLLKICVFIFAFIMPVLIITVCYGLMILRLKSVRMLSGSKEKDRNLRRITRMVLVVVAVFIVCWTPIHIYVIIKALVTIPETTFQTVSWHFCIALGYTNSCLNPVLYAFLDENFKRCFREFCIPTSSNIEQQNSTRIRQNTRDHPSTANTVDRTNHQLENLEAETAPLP

| Structure (SMILES) | A8: inhibition of radioligand binding, human neurokinin (NK1) (Human neurokinin (NK1)) | A1: inhibition of radioligand binding, human δ-opioid (DOP) (Human δ-opioid (DOP)) | A3: inhibition of radioligand binding, human melanocortin (MC3) (Human Melanocortin (MC3)) | A9: inhibition of radioligand binding, human neuropeptide Y (NPY-Y1) [1] | A7: inhibition of radioligand binding, human μ-opioid (MOP) (Human μ-opioid (MOP)) | A11: inhibition of radioligand binding, mouse urotensin (mUR2) (Mouse urotensin (mUR2)) | A2: inhibition of radioligand binding, human κ-opioid (KOP) (Human κ-Opioid (KOP)) | A4: inhibition of radioligand binding, human melanocortin (MC4) (Human Melanocortin (MC4)) | A5: inhibition of radioligand binding, human melanocortin (MC5) (Human melanocortin (MC5)) | A10: inhibition of radioligand binding, human opioid (ORL1) (Human opioid (ORL1)) | A6: inhibition of radioligand binding, human melanin-concentrating hormone (MCH1) [2] |
| --- | --- | --- | --- | --- | --- | --- | --- | --- | --- | --- | --- |
| CSC1OC(COCc2ccc(Cl)cc2)C(O)C(OCc2ccc3ccccc3c2)C1NC(=O)CCCN (stereo not shown) [compound 310] | + (“+” indicates greater than 50% inhibition at 10 μM) | − (“−” indicates less than 50% inhibition at 10 μM) | − (“−” indicates less than 50% inhibition at 10 μM) | − (“−” indicates less than 50% inhibition at 10 μM) | − (“−” indicates less than 50% inhibition at 10 μM) | − (“−” indicates less than 50% inhibition at 10 μM) | − (“−” indicates less than 50% inhibition at 10 μM) | − (“−” indicates less than 50% inhibition at 10 μM) | − (“−” indicates less than 50% inhibition at 10 μM) | − (“−” indicates less than 50% inhibition at 10 μM) | − (“−” indicates less than 50% inhibition at 10 μM) |
| NCCC(=O)NC1C(OCc2ccc(Cl)cc2)OC(COCc2ccccc2)C(O)C1OCc1ccccc1 (single isomer, unassigned) [compound 486] | + (“+” indicates greater than 50% inhibition at 10 μM) | − (“−” indicates less than 50% inhibition at 10 μM) | − (“−” indicates less than 50% inhibition at 10 μM) | − (“−” indicates less than 50% inhibition at 10 μM) | − (“−” indicates less than 50% inhibition at 10 μM) | − (“−” indicates less than 50% inhibition at 10 μM) | − (“−” indicates less than 50% inhibition at 10 μM) | − (“−” indicates less than 50% inhibition at 10 μM) | − (“−” indicates less than 50% inhibition at 10 μM) | − (“−” indicates less than 50% inhibition at 10 μM) | − (“−” indicates less than 50% inhibition at 10 μM) |

From patent publication US20080009418A1, “Selective Inhibitors” (Alchemia LTD., priority 2004, published 2008)
